According to article PMC8523698, “Preclinical characterization of an intravenous coronavirus 3CL protease inhibitor for the potential treatment of COVID19” (Nature Communications, 2021):
Where “and” joins values, the source holds several entries; their conditions need not be identical. Equal values may be shown once.

Experiments:
[1] = Liver S9 binding by equilibrium dialysis; conditions: for recovery at 6 h: human liver S9, %Recovery
[2] = Metabolic stability and enzyme kinetics in liver S9 (conversion to PF-00835231); conditions: for microsomal CLint / Km at 20 min: rat
[3] = as above; conditions: for Km at 20 min / microsomal CLint: dog
[4] = liver S9, pH 7.5, CL, unsaturable component, best-fit
[5] = liver S9, pH 7.5, CLintu (unbound CLint)

For `COc1cccc2[nH]c(C(=O)N[C@@H](CC(C)C)C(=O)N[C@@H](C[C@@H]3CCNC3=O)C(=O)COP(=O)(O)O)cc12` [PF-07304814], the “Hum liver S9 binding” value ([1]; clearance input) was 0.89, the “%Stability” value ([1]; human liver S9 matrix, n=4) was 98% and the recovery at 6 h ([1]; human, human liver S9 binding, MEAN, n 4) was 94%. It also gave a recovery at 6 h ([1]; human, human liver S9 binding, individual replicates) of 95%, a fraction unbound at 6 h ([1]; human, human liver S9, fu MEAN, human liver S9, mean, n=4) of 0.89 and a fraction unbound at 6 h ([1]; human, human liver S9, fu, human liver S9, individual replicates 1-4) of 0.902. The fraction unbound at 6 h ([1]; human, human liver S9, fu, human liver S9 binding, MEAN, n 4) was 0.89, the fraction unbound at 6 h ([1]; human, human liver S9, fu, human liver S9 binding, individual replicates) was 0.867 and the fraction unbound at 6 h, 2 µM ([1]; human, liver S9, Unbound fraction fu (%CV), human liver S9, 0.03mg/mL protein, 2 µM substrate) was 0.89. For the same molecule, the “%Recovery, human liver S9 binding” value ([1]; individual replicates) was 88% and 99%, the “fu, human liver S9 binding” value ([1]; individual replicates) was 0.888 and the “%Stability, human liver S9 binding” value ([1]; mean, n 4) was 98%. It also gave a Vmax ([2]; Rat, best-fit, Two enzyme: MM + Unsaturable) of 2188 pmol/min/mg, a microsomal CLint [2, 4] of 4.56 µL/min/mg and a microsomal CLint ([2]; liver S9, pH 7.5, CLint total, Rat, (vmax / KM) + CL) of 45.5 µL/min/mg. The microsomal CLint ([2]; liver S9, pH 7.5, CLint,2, low affinity kinetic component) was 4.56 µL/min/mg, the microsomal CLint ([2]; liver S9, pH 7.5, CLint,app) was 45.5 µL/min/mg and the microsomal CLint [2, 5] was 51 µL/min/mg. It also gave a Km at 20 min ([2]; rat liver S9, pH 7.5, KM) of 53.4 µM, a Km at 20 min ([2]; rat liver S9, pH 7.5, Km, Rat, best-fit, Two enzyme: MM + Unsaturable) of 53.4 µM and a Vmax ([3]; Dog, best-fit, Two enzyme: MM + Unsaturable) of 213.7 pmol/min/mg. It also gave a Km at 20 min ([3]; dog liver S9, pH 7.5, KM) of 2.91 µM, a Km at 20 min ([3]; dog liver S9, pH 7.5, Km, Dog, best-fit, Two enzyme: MM + Unsaturable) of 2.91 µM and a microsomal CLint [3, 4] of 1.69 µL/min/mg. It also gave a microsomal CLint ([3]; liver S9, pH 7.5, CLint total, Dog, (vmax / KM) + CL) of 75.2 µL/min/mg, a microsomal CLint ([3]; liver S9, pH 7.5, CLint,app) of 75.2 µL/min/mg and a microsomal CLint [3, 5] of 84 µL/min/mg.
